According to patent US8048882B2, “Pharmaceutical compositions with increased activity” (priority 2003, dated 2011):
Read-outs that look alike come from different tables or passages of the source.

What was measured:
[1] = test system: spinal reflex (L5 ventral root reflex potential); assay: Inhibition of the spinal reflex in isolated hemisected spinal cord preparation, in vitro; set-up: species or system rat; conditions: alone
Procedure: Our experiments were performed according to the methods described by Otsuka and Konishi (Otsuka, M., Konishi, S. Electrophysiology of mammalian spinal cord in vitro. Nature 252, 733-734; 1974), with slight modifications (Kocsis, P. et al. Participation of AMPA- and NMDA-type excitatory amino acid receptors in the spinal reflex transmission, in rat. Brain Research Bulletin 60: 81-91; 2003). The L5 dorsal root of the isolated, hemisected spinal cord preparation was stimulated by supramaximal electrical impulse and the reflex potential from the L5 ventral root was recorded. Different components of the reflex potential obtained are well distinguishable based on their post-stimulus latencies and durations. […] This preparation is ideal for the investigation of pharmacodynamic interactions between two substances, since metabolic factors take no part in them. […] Cont (control)=effect of crobenitine in itself; as well as in the presence of fluoxetine (Fluo; 1 μM), sertraline (Sert; 0.5 μM), paroxetine (Paro; 10 nM) and citalopram (Cital; 5 nM).

[2] = test system: GYKI 20039-induced tremor; assay: GYKI 20039-induced tremor test; format: in vivo, mice; conditions: for change of effectiveness in tremor test when a serotonin uptake inhibitor is present: with 10 mg/kg fluoxetine or 10 mg/kg sertraline i.p., FIG. 4
Procedure: Tremor can be induced by administration of GYKI 20039 (3-(2,6-diclorophenyl)-2-iminothiazolidine). The method was published by Kocsis P., Tarnawa I., Kovacs Gy., Szombathelyi Zs., Farkas S., 2002; Acta Pharmaceut. Hung., 72:49-61; U.S. Pat. No. 5,340,823, 1994, U.S. Pat. No. 5,198,446, JP 1992270293, EP 0468825, 1990 HU 4647.
Tests were carried out in male NMRI mice (19-21 g), the active substances were administered i.p., simultaneously.
Experiments with combinations containing the active agents in a fixed ratio were also performed.

Rotarod test = conditions: male, NMRI, mouse, in vivo, read-out: ED50, rotarod test in mice
Procedure: By the rotarod test (Dunnham, N. W., Miya, T. S. J. Am. Pharm. Assoc. 46, 208, 1957) impaired coordination and disorders of the voluntary movement as possible side effects can be studied. In this respect the change in the potency of the voltage-dependent sodium channel blockers caused by the serotonin uptake inhibitors was far less pronounced, resulting in a more favourable side effect profile of the combinations compared to that of the parent compounds.
The tests were carried out using male NMRI mice (19-21 g). Experiments performed with different pretreatment times produced similar results.

[3] = test system: maximal electroshock seizures; assay: Inhibition of maximal electroshock seizures (MES); format: in vivo, mice; conditions: sodium channel blocker 30 minutes prior to electroshock
Procedure: Experiments in this respect were carried out on male NMRI mice (19-21 g).
Serotonin uptake inhibitors were administered i.p. 45 minutes, while sodium channel blockers 30 minutes prior to the electroshock.

[4] = test system: phenylquinone-induced acute pain; assay: Phenylquinone-induced acute pain (writhing test); format: in vivo, mice; conditions: with 10 mg/kg fluoxetine given 15 minutes prior to lamotrigine (i.p.); FIG. 5
Text: The method used was described by Hendershot and Forsaith in 1959. (Kazuko Goto et al. Analgesic Effect of Mofezolac, a Non-Steroidal Anti-Inflammatory Drug, Against Phenylquinone-Induced Acute Pain in Mice. Prostaglandins & other Lipid Mediators 56: 245-254; 1998, Prem Prakash Singh et al. Acetic Acid and Phenylquinone WrithingTest: A Critical Study in Mice. Meth and Find Exptl Clin Pharmacol 5(9): 601-606; 1983.) Acute pain was induced by injecting phenylquinone, an irritant, into the abdominal cavity (0.02% solution, 0.1 ml/10 g bodyweight). […] Experiments were performed in male NMRI mice (19-21 g).

[5] = 10 mg/kg intraperitoneal dose in mice
[6] = with fluoxetine (10 mg/kg) i.p. 45 minutes
[7] = with sertraline (10 mg/kg) i.p. 45 minutes
[8] = in combination with fluoxetine (10 mg/kg)
[9] = in combination with sertraline (10 mg/kg)

Question: For `CCc1ccc(C(=O)C(C)CN2CCCCC2)cc1` (stereo not shown) [eperisone], which “spinal reflex inhibitory effect” value [1] is on record?
Answer: considerable spinal reflex inhibitory effect

Question: For `N=C1SCCN1c1c(Cl)cccc1Cl` [GYKI 20039, 3-(2,6-diclorophenyl)-2-iminothiazolidine], which “duration of induced tremor” value [2, 5] is on record?
Answer: 30 to 60 min

Question: What about the tremor induction [2, 5] of the same molecule?
Answer: intensive tremor

Question: Which ED50 at 20 min (Rotarod test; alone) does the source give for `CNCCC(Oc1ccc(C(F)(F)F)cc1)c1ccccc1` (stereo not shown) [fluoxetine] here?
Answer: 43.5 mg/kg

Question: What about the ED50 at 35 min (Rotarod test; alone) of the same molecule?
Answer: 45.8 mg/kg

Question: For `Cc1ccc(C(=O)C(C)CN2CCCCC2)cc1` (stereo not shown) [tolperisone], which “spinal reflex inhibitory effect” value [1] is on record?
Answer: considerable spinal reflex inhibitory effect

Question: Which ED50 at 20 min (Rotarod test; alone) does the source give for `CN[C@H]1CC[C@@H](c2ccc(Cl)c(Cl)c2)c2ccccc21` [sertraline] here?
Answer: 112 mg/kg

Question: What about the ED50 at 35 min (Rotarod test; alone) of the same molecule?
Answer: 120 mg/kg

Question: Which results are given for `Nc1nnc(-c2cccc(Cl)c2Cl)c(N)n1` [lamotrigine]?
Answer: ID50 (i.p.) (calculated for the sodium channel blocker in the combination) ([2]; tremor test, male NMRI mice, i.p., components administered simultaneously in fixed ratio): 39.79 mg/kg; change of effectiveness in tremor test when a serotonin uptake inhibitor is present [2]: increase of their effectiveness; ID50 (MES inhibition in mice) ([3]; alone): 4.5 mg/kg; ID50 (MES inhibition in mice) [3, 6]: 1.3 mg/kg; ID50 (MES inhibition in mice) [3, 7]: 1.4 mg/kg; ED50 at 20 min (Rotarod test; alone): 34.3 mg/kg; ED50 at 20 min (Rotarod test; [8]): 28.5 mg/kg; ED50 at 35 min (Rotarod test; [8]): 31.1 mg/kg; ED50 at 20 min (Rotarod test; [9]): 31.9 mg/kg; ED50 at 35 min (Rotarod test; [9]): 30.8 mg/kg; change in analgesic potency (ID50, writhing test) in the presence of a serotonin uptake inhibitor [4]: Increase in the analgesic potency

Question: With `C[C@@H](CN1CC[C@@]2(C)c3cccc(O)c3C[C@@H]1C2(C)C)OCc1ccccc1` [crobenetine] as the molecule, how does the “change of effectiveness in tremor test when a serotonin uptake inhibitor is present” value [2] read?
Answer: increase of their effectiveness

Question: What about the “ID50 (MES inhibition in mice)” value ([3]; alone) of the same molecule?
Answer: >>20

Question: What about the ID50 (MES inhibition in mice) [3, 6] of the same molecule?
Answer: 17 mg/kg

Question: What about the ID50 (MES inhibition in mice) [3, 7] of the same molecule?
Answer: 15.5 mg/kg

Question: What about the ED50 at 20 min (Rotarod test; alone) of the same molecule?
Answer: 68.1 mg/kg

Question: And the ED50 at 20 min (Rotarod test; [8])?
Answer: 38.6 mg/kg

Question: What about the ED50 at 35 min (Rotarod test; [8]) of the same molecule?
Answer: 51 mg/kg

Question: And the ED50 at 20 min (Rotarod test; [9])?
Answer: 36.8 mg/kg

Question: What about the ED50 at 35 min (Rotarod test; [9]) of the same molecule?
Answer: 53.1 mg/kg
